System: PRISM panel of 845 cancer cell lines
Assay: PRISM assay
Assay type: cell-based, human
Description: The PRISM cell set comprised 845 cell lines representing more than 45 lineages (see Supplementary Table S1 for cell line information), which largely overlapped with the Cancer Cell Line Encyclopedia; https://portals.broadinstitute.org/ccle). Cell lines were grown in RPMI without phenol red and supplemented with 10% or 20% FBS for adherent and suspended lines, respectively. Parental cell lines were stably infected with a unique 24-nucleotide DNA barcode via lentiviral transduction and blasticidin selection. After selection, barcoded cell lines were expanded and subjected to quality control (Mycoplasma contamination test, an SNP test for confirming cell line identity, and barcode ID confirmation). Approved cell lines were then pooled (20–25 cell lines per pool) based on doubling time similarity and frozen in assay-ready vials.
RMC-6236 was added to 384-well plates at 8-point concentration with 3-fold dilutions in triplicate. These assay-ready plates were then seeded with the thawed cell line pools. Adherent cell pools were plated at 1,250 cells per well, whereas suspension and mixed adherent/suspension pools were plated at 2,000 cells per well. Treated cells were incubated for 5 days, and then lysed. Lysate plates were collapsed together prior to barcode amplification and detection.
Each cell line's unique barcode is located in the 3′UTR of the blasticidin-resistance gene and therefore is expressed as mRNA. Total mRNA was captured using magnetic particles that recognize polyA sequences. Captured mRNA was reverse-transcribed into cDNA and then the sequence containing the unique PRISM barcode was amplified using PCR. Finally, Luminex beads that recognize the specific barcode sequences in the cell set were hybridized to the PCR products and detected using a Luminex scanner which reports the signal as a median fluorescent intensity (MFI).
• Each detection well contained 10 control barcodes in increasing abundances as spike-in controls. For each plate, we first create a reference profile by calculating the median of the log2(MFI) values across negative control wells for each of these spiked-in barcodes. • For each well, a monotonic smooth p-spline was fitted to map the spike-in control levels to the reference profile. Next, we transform the log2(MFI) for each cell barcode using the fitted spline to allow well-to-well comparisons by correcting for amplification and detection artifacts. • Next, the separability between negative and positive control treatments was assessed. In particular, we calculated the error rate of the optimum simple threshold classifier between the control samples for each cell line and plate combination. The error rate is a measure of the overlap of the two control sets and was defined as error = (FP + FN)/n, where FP is false positives, FN is false negatives, and n is the total number of controls. A threshold was set between the distributions of positive and negative control log2(MFI) values (with everything below the threshold said to be positive and above said to be negative) such that this value is minimized. Additionally, we also calculated the dynamic range of each cell line. […] Additionally, any cell line that had less than 2 passing replicates was also omitted for the sake of reproducibility. Finally, we computed viability by normalizing with respect to the median negative control for each plate.
For every gene with nonsilent mutations in at least four cell lines, we compared the AUC values between cells with and without those mutations using a t test. This analysis was carried out for (i) the full data set; (ii) excluding cell lines with nonsilent KRAS mutations; and (iii) excluding cell lines that have either KRAS or NRAS nonsilent mutations.

CCn1c(-c2cc(N3CCN(C)CC3)cnc2[C@H](C)OC)c2c3cc(ccc31)-c1csc(n1)C[C@H](NC(=O)[C@H]1C[C@@H]1C)C(=O)N1CCC[C@H](N1)C(=O)OCC(C)(C)C2 [RMC-6236]
RMC-6236: RevMed PRISM: AUC (22RV1_PROSTATE): 0.9065 | RMC-6236: RevMed PRISM: AUC (A427_LUNG, KRAS p.G12D): 0.4282 | RMC-6236: RevMed PRISM: AUC (A704_KIDNEY): 1 | RMC-6236: RevMed PRISM: AUC (A1207_CENTRAL_NERVOUS_SYSTEM): 1 | RMC-6236: RevMed PRISM: AUC (BICR16_UPPER_AERODIGESTIVE_TRACT): 0.548 | RMC-6236: RevMed PRISM: AUC (CAL54_KIDNEY): 1 | RMC-6236: RevMed PRISM: AUC (CAL72_BONE): 0.8456 | RMC-6236: RevMed PRISM: AUC (CAL120_BREAST): 0.7982 | RMC-6236: RevMed PRISM: AUC (CHLA15_AUTONOMIC_GANGLIA): 0.6747 | RMC-6236: RevMed PRISM: AUC (COLO678_LARGE_INTESTINE, KRAS p.G12D): 0.7109 | RMC-6236: RevMed PRISM: AUC (COLO679_SKIN): 0.8171 | RMC-6236: RevMed PRISM: AUC (CORL23_LUNG, KRAS p.G12V): 0.4445 | RMC-6236: RevMed PRISM: AUC (DETROIT562_UPPER_AERODIGESTIVE_TRACT): 0.5051 | RMC-6236: RevMed PRISM: AUC (DMS53_LUNG): 0.9861 | RMC-6236: RevMed PRISM: AUC (EBC1_LUNG): 0.478 | RMC-6236: RevMed PRISM: AUC (ECGI10_OESOPHAGUS): 0.6603 | RMC-6236: RevMed PRISM: AUC (EW8_BONE): 0.6608 | RMC-6236: RevMed PRISM: AUC (EWS502_BONE): 0.706 | RMC-6236: RevMed PRISM: AUC (FADU_UPPER_AERODIGESTIVE_TRACT): 0.6934 | RMC-6236: RevMed PRISM: AUC (G292CLONEA141B1_BONE): 0.9519 | RMC-6236: RevMed PRISM: AUC (GB2_BILIARY_TRACT): 0.6327 | RMC-6236: RevMed PRISM: AUC (H357_UPPER_AERODIGESTIVE_TRACT, HRAS p.G13S): 0.44 | RMC-6236: RevMed PRISM: AUC (HARA_LUNG): 0.583 | RMC-6236: RevMed PRISM: AUC (HCC827_LUNG): 0.8007 | RMC-6236: RevMed PRISM: AUC (HCC1195_LUNG, NRAS p.Q61L): 0.7308 | RMC-6236: RevMed PRISM: AUC (HCC1937_BREAST): 0.9056 | RMC-6236: RevMed PRISM: AUC (HCSC1_CERVIX, NRAS p.G13R): 1 | RMC-6236: RevMed PRISM: AUC (HDQP1_BREAST): 0.5485 | RMC-6236: RevMed PRISM: AUC (HEYA8_OVARY, KRAS p.G12D): 0.6142 | RMC-6236: RevMed PRISM: AUC (HT29_LARGE_INTESTINE): 0.9177 | RMC-6236: RevMed PRISM: AUC (HT115_LARGE_INTESTINE): 0.7857 | RMC-6236: RevMed PRISM: AUC (IGR39_SKIN): 0.916 | RMC-6236: RevMed PRISM: AUC (JHH6_LIVER): 0.7876 | RMC-6236: RevMed PRISM: AUC (JHOC5_OVARY): 0.7067 | RMC-6236: RevMed PRISM: AUC (KE39_STOMACH): 0.7632 | RMC-6236: RevMed PRISM: AUC (KE97_STOMACH): 0.8452 | RMC-6236: RevMed PRISM: AUC (KKU100_BILIARY_TRACT, KRAS p.G12D): 0.4482 | RMC-6236: RevMed PRISM: AUC (KKU213_BILIARY_TRACT, KRAS p.G13C): 0.6654 | RMC-6236: RevMed PRISM: AUC (KLE_ENDOMETRIUM): 0.9884 | RMC-6236: RevMed PRISM: AUC (KMS34_HAEMATOPOIETIC_AND_LYMPHOID_TISSUE): 0.7785 | RMC-6236: RevMed PRISM: AUC (KOSC2CL343_UPPER_AERODIGESTIVE_TRACT): 0.6166 | RMC-6236: RevMed PRISM: AUC (KP2_PANCREAS, KRAS p.G12R): 0.4026 | Median AUC (PRISM) (KRAS^MUT cell lines): 0.57 | RMC-6236: RevMed PRISM: AUC (KU1919_URINARY_TRACT, NRAS p.Q61R): 0.3992 | RMC-6236: RevMed PRISM: AUC (KYSE30_OESOPHAGUS, HRAS p.Q61L): 0.6346 | RMC-6236: RevMed PRISM: AUC (KYSE150_OESOPHAGUS): 0.7237 | RMC-6236: RevMed PRISM: AUC (KYSE410_OESOPHAGUS, KRAS p.G12C): 0.5271 | RMC-6236: RevMed PRISM: AUC (KYSE450_OESOPHAGUS): 0.5198 | RMC-6236: RevMed PRISM: AUC (LI7_LIVER): 0.743 | RMC-6236: RevMed PRISM: AUC (LOVO_LARGE_INTESTINE, KRAS p.G13D): 0.6638 | RMC-6236: RevMed PRISM: AUC (LOXIMVI_SKIN): 0.876 | RMC-6236: RevMed PRISM: AUC (LS411N_LARGE_INTESTINE): 1
